The values below come from US9371331B2, “Modulators of methyl modifying enzymes, compositions and uses thereof” (Constellation Pharmaceuticals, Inc., priority 2012, dated 2016).

One assay has as its target Y641N EZH2 (Homo sapiens, UniProt Q15910, Y641N). In words: Y641N EZH2 assay: as EZH2 assay, with reconstituted H3K27Me2 oligonucleosomes as substrate. It is filed as biochemical.
In a further assay the target is EZH2 (rPRC2) (Homo sapiens, UniProt Q15910). In words: EZH2 assay: rPRC2, biotinylated oligonucleosomes, 3H SAM methyl transfer (FlashPlate scintillation). Particulars: biotinylated oligonucleosome substrate. It is filed as biochemical. How it is done:
Assays were carried out by mixing rPRC2 together with biotinylated oligonucleosome substrates in the presence of the radio-labeled enzyme co-factor, S-adenosyl-1-methionine (^3H SAM) (Perkin Elmer) and monitoring the enzymatically mediated transfer of tritiated methyl groups from ^3H SAM to histone lysine residues. The amount of resulting tritiated methyl histone product was measured by first capturing the biotinylated oligonucleosomes in streptavidin (SAV) coated FlashPlates (Perkin Elmer), followed by a wash step to remove un-reacted ^3H SAM, and then counting on a TopCount NXT 384 well plate scintillation counter (Perkin Elmer). The final assay conditions for EZH2 were as follows: 50 mM Tris Buffer pH 8.5, 1 mM DTT, 69 μM Brij-35 detergent, 5.0 mM MgCl2, 0.1 mg/mL BSA, 0.2 μM ^3H SAM, 0.2 μM biotinylated oligonucleosomes, 3.6 μM H3K27 mc3 peptide and 2 nM EZH2.
A 12.5 μL volume of the HMT enzyme, H3K27me3 peptide and oligonucleosome substrate in assay buffer was added to each well of the assay plate using a Multidrop Combi (ThermoFisher). Compounds were pre-incubated with the enzyme for 20 min, followed by initiation of the methyltransferase reaction by addition of 12.5 μL of ^3H SAM in assay buffer (final volume=25 μL). The final concentrations of compounds ranged from a top default concentration of 80 μM down to 0.16 μM in ten 2-fold dilution steps. Reactions were carried out for 60 minutes and quenched with 20 μL per well of 1.96 mM SAH, 50 mM Tris pH 8.5, 200 mM EDTA. Stopped reactions were transferred to SAV coated Flashplates (Perkin Elmer), incubated for 120 min, washed with a plate washer, and then read on the TopCount NXT (1.0 min/well) to measure the amount of methyl histone product formed during the reaction.

Setting [1] is: Y641N EZH2 IC50, Y641N mutant EZH2, H3K27Me2 oligonucleosome substrate.
Where [2] appears, read: EZH2 IC50, wild-type EZH2 (rPRC2).
The mark [3] stands for this setting: Y641N mutant EZH2, H3K27Me2 oligonucleosome substrate.
[4] abbreviates: Y641N mutant EZH2, H3K27Me2 oligonucleosome substrate, read-out: Y641N EZH2 IC50.
[5] abbreviates: wild-type EZH2 (rPRC2), read-out: EZH2 IC50.

Like-named read-outs stand apart in the source and are kept apart here.

Chain of Y641N EZH2 (Q15910 whole entry Y641N): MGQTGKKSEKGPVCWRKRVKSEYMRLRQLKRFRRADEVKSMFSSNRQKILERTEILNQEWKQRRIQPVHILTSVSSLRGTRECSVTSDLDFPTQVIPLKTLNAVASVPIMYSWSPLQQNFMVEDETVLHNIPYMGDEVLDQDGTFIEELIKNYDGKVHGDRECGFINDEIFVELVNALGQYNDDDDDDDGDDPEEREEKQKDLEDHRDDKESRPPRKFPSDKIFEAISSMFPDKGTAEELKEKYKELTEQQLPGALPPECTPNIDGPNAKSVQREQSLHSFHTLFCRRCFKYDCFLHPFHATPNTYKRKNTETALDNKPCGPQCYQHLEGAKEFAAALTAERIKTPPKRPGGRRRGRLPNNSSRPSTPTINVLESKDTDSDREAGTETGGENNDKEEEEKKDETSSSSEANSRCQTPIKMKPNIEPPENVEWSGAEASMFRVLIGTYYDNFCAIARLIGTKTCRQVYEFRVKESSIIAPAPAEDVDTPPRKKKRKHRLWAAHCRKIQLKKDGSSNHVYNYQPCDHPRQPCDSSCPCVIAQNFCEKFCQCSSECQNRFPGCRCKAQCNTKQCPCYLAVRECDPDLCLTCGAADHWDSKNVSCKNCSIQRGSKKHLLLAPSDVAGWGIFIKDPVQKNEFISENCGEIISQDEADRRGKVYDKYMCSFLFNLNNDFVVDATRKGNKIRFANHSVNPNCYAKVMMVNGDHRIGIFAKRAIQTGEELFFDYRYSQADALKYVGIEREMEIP
Chain of Y641N EZH2 (O75530 whole entry partner): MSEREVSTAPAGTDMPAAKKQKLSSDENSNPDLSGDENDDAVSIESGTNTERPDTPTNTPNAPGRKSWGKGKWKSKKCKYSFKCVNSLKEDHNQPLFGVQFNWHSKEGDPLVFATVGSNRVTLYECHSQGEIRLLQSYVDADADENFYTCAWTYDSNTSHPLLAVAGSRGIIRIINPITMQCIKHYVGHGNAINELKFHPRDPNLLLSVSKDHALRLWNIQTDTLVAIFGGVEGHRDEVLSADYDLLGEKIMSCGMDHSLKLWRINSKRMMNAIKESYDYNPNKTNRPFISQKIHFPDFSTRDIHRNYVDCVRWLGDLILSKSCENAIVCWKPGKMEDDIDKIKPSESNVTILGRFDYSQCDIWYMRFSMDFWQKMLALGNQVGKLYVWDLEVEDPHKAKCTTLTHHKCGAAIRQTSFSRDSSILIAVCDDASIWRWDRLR
Chain of Y641N EZH2 (Q15022 whole entry partner): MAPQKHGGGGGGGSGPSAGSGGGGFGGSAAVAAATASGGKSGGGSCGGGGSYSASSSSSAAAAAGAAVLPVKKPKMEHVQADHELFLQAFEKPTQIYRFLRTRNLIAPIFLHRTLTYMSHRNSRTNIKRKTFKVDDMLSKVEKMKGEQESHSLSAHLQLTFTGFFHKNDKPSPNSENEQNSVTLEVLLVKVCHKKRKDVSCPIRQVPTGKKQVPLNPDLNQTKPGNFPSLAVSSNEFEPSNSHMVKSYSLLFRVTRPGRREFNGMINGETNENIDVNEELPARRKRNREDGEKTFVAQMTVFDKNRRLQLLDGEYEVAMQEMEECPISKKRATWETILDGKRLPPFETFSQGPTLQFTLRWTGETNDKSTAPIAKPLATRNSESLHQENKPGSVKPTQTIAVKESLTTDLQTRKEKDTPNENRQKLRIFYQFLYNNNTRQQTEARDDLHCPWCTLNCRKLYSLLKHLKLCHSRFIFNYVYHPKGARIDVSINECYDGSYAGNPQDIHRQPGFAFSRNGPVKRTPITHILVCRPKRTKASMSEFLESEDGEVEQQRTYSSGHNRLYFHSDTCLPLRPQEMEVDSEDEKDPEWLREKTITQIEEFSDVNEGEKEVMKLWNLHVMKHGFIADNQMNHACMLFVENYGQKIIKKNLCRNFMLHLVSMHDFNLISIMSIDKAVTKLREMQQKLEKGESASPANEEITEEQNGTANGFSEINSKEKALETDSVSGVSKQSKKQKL
Chain of EZH2 (rPRC2) (Q15910 whole entry): as the sequence (Q15910 whole entry Y641N) above, with N641Y counted along it
Chain of EZH2 (rPRC2) (O75530 whole entry partner): as the sequence (O75530 whole entry partner) above
Chain of EZH2 (rPRC2) (Q15022 whole entry partner): as the sequence (Q15022 whole entry partner) above

By IC50 is commonly meant the midpoint of a concentration-inhibition curve. Turning to `COCC(C)n1c(C)c(C(=O)NCc2c(OC)cc(C3CC3)[nH]c2=O)c2cccnc21` (racemic) [Compound 260, (±)-N-((6-cyclopropyl-4-methoxy-2-oxo-1,2-dihydropyridin-3-yl)methyl)-1-(1-methoxypropan-2-yl)-2-methyl-1H-pyrrolo[2,3-b]pyridine-3-carboxamide], the IC50 against Y641N EZH2 (setting [1]) was 1000 to 10000 nM; at EZH2 (rPRC2) (setting [2]) it was 100 to 1000 nM.
As to `Cc1cc(C)c(CNC(=O)c2c(C)n(C(C)CN3CCCCC3)c3ncccc23)c(=O)[nH]1` (racemic) [Compound 272, (±)-N-((4,6-dimethyl-2-oxo-1,2-dihydropyridin-3-yl)methyl)-2-methyl-1-(1-(piperidin-1-yl)propan-2-yl)-1H-pyrrolo[2,3-b]pyridine-3-carboxamide], the “Y641N EZH2 IC50” value on Y641N EZH2 (setting [3]) is listed as “*(10 μM)”. The compound further had an IC50 against EZH2 (rPRC2) (setting [2]) of 1000 to 10000 nM.
For `CCC(OC)C(C)n1c(C)c(C(=O)NCc2c(C)cc(C)[nH]c2=O)c2ccccc21` (racemic) [Compound 275, (±)-N-((4,6-dimethyl-2-oxo-1,2-dihydropyridin-3-yl)methyl)-1-(3-methoxypentan-2-yl)-2-methyl-1H-indole-3-carboxamide], the IC50 at Y641N EZH2 (setting [1]) and on EZH2 (rPRC2) (setting [2]) was below 100 nM in each case.
Take `COc1cc(C)[nH]c(=O)c1CNC(=O)c1c(C)n(C(C)C(C)(C)OC)c2ccccc12` (racemic) [Compound 277, (±)-1-(3-methoxy-3-methylbutan-2-yl)-N-((4-methoxy-6-methyl-2-oxo-1,2-dihydropyridin-3-yl)methyl)-2-methyl-1H-indole-3-carboxamide]: the 50% inhibitory concentration (IC50) against Y641N EZH2 (setting [1]) and against EZH2 (rPRC2) (setting [2]) was below 100 nM in each case.
As to `CCc1cc(OC)c(CNC(=O)c2c(C)n(C(C)COC)c3ncccc23)c(=O)[nH]1` (racemic) [Compound 280, (±)-N-((6-ethyl-4-methoxy-2-oxo-1,2-dihydropyridin-3-yl)methyl)-1-(1-methoxypropan-2-yl)-2-methyl-1H-pyrrolo[2,3-b]pyridine-3-carboxamide], the IC50 against Y641N EZH2 (setting [1]) is 1000 to 10000 nM; at EZH2 (rPRC2) (setting [2]), 100 to 1000 nM.
Taken in the same sequence, the figures for `CCOC(C)C(C)n1c(C)c(C(=O)NCc2c(OC)cc(C)[nH]c2=O)c2ccccc21` (racemic) [Compound 290, (±)-1-(3-ethoxybutan-2-yl)-N-((4-methoxy-6-methyl-2-oxo-1,2-dihydropyridin-3-yl)methyl)-2-methyl-1H-indole-3-carboxamide] were 100 to 1000 nM and below 100 nM.
As to `COCC(C)n1c(C)c(C(=O)NCc2c(OC)cc(C)[nH]c2=O)c2ccc(N3CCNCC3)nc21` (racemic) [Compound 295, (±)-N-((4-methoxy-6-methyl-2-oxo-1,2-dihydropyridin-3-yl)methyl)-1-(1-methoxypropan-2-yl)-2-methyl-6-(piperazin-1-yl)-1H-pyrrolo[2,3-b]pyridine-3-carboxamide], the IC50 at Y641N EZH2 (setting [4]) was in the range of 1000 to 10000 nM; on EZH2 (rPRC2) (setting [5]), 100 to 1000 nM.
On to `COCCOC(C)C(C)n1c(C)c(C(=O)NCc2c(OC)cc(C)[nH]c2=O)c2cccnc21` (racemic) [Compound 297, (±)-N-((4-methoxy-6-methyl-2-oxo-1,2-dihydropyridin-3-yl)methyl)-1-(3-(2-methoxyethoxy)butan-2-yl)-2-methyl-1H-pyrrolo[2,3-b]pyridine-3-carboxamide 2,2,2-trifluoroacetate], for which the values for the IC50 against Y641N EZH2 (setting [1]) and at EZH2 (rPRC2) (setting [2]) were 100 to 1000 nM and below 100 nM, respectively.
As to `COc1cc(C)[nH]c(=O)c1CNC(=O)c1c(C)n(C(C)CC#N)c2ncccc12` (racemic) [Compound 301, (±)-1-(1-cyanopropan-2-yl)-N-((4-methoxy-6-methyl-2-oxo-1,2-dihydropyridin-3-yl)methyl)-2-methyl-1H-pyrrolo[2,3-b]pyridine-3-carboxamide], the IC50 against Y641N EZH2 (setting [1]) is 100 to 1000 nM; against EZH2 (rPRC2) (setting [2]), below 100 nM.
The like results for `COCC(C)n1c(C)c(C(=O)NCc2c(OC)cc(C)[nH]c2=O)c2ccc(C(F)(F)F)nc21` (racemic) [Compound 309, (±)-N-((4-methoxy-6-methyl-2-oxo-1,2-dihydropyridin-3-yl)methyl)-1-(1-methoxypropan-2-yl)-2-methyl-6-(trifluoromethyl)-1H-pyrrolo[2,3-b]pyridine-3-carboxamide] were, in that order, 1000 to 10000 nM and 100 to 1000 nM.
The like results for `COc1cc(C)[nH]c(=O)c1CNC(=O)c1c(C)n(C(C)C2CCC(F)(F)CC2)c2ncncc12` (racemic) [Compound 334, (±)-7-(1-(4,4-difluorocyclohexyl)ethyl)-N-((4-methoxy-6-methyl-2-oxo-1,2-dihydropyridin-3-yl)methyl)-6-methyl-7H-pyrrolo[2,3-d]pyrimidine-5-carboxamide] were, in that order, 100 to 1000 nM and below 100 nM.
Regarding `Cc1cc(C)c(CNC(=O)c2cnn(C(C)c3ccccc3)c2C)c(O)n1` (single isomer, unassigned) [Compound 107, (R or S)—N-((2-hydroxy-4,6-dimethylpyridin-3-yl)methyl)-5-methyl-1-(1-phenylethyl)-1H-pyrazole-4-carboxamide], the IC50 on Y641N EZH2 (setting [4]) and on EZH2 (rPRC2) (setting [5]) was above 10000 nM in each case.
In the case of `CCC(C)n1c(C)c(C(=O)NCc2c(C)cc(C)[nH]c2=O)c2cccnc21` (single isomer, unassigned) [Compound 195, (R or S)-1-(sec-butyl)-N-((4,6-dimethyl-2-oxo-1,2-dihydropyridin-3-yl)methyl)-2-methyl-1H-pyrrolo[2,3-b]pyridine-3-carboxamide], at Y641N EZH2 (setting [3]), the “Y641N EZH2 IC50” value is recorded as “*(0.5 μM)”. At EZH2 (rPRC2) (setting [2]), this compound yielded an IC50 of 100 to 1000 nM.
Take `Cc1cc(C)c(COC(=O)c2c(C)n(C3CCc4ccccc43)c3ccccc23)c(=O)[nH]1` (single isomer, unassigned) [Compound 213, (R or S)-(4,6-dimethyl-2-oxo-1,2-dihydropyridin-3-yl)methyl 1-(2,3-dihydro-1H-inden-1-yl)-2-methyl-1H-indole-3-carboxylate]: the IC50 at Y641N EZH2 (setting [1]) is 100 to 1000 nM; against EZH2 (rPRC2) (setting [2]) it was below 100 nM.
For the compound `COCC(C)n1c(C)c(C(=O)NCc2c(OC)cc(C)[nH]c2=O)c2ccccc21` (single isomer, unassigned) [Compound 223, N-((4-methoxy-6-methyl-2-oxo-1,2-dihydropyridin-3-yl)methyl)-1-(1-methoxypropan-2-yl)-2-methyl-1H-indole-3-carboxamide], the IC50 was 100 to 1000 nM against Y641N EZH2 (setting [1]) and below 100 nM on EZH2 (rPRC2) (setting [2]).
The like results for `Cc1cc(C)c(CNC(=O)c2c(C)n(C(C)c3cccc(C(N)=O)c3)c3ccccc23)c(=O)[nH]1` (single isomer, unassigned) [Compound 225, (R or S)-1-(1-(3-carbamoylphenyl)ethyl)-N-((4,6-dimethyl-2-oxo-1,2-dihydropyridin-3-yl)methyl)-2-methyl-1H-indole-3-carboxamide] were, in that order, below 100 nM and below 100 nM.
For `Cc1cc(C)c(CNC(=O)c2c(C)n(C(C)c3cccc(C(N)=O)c3)c3ccccc23)c(=O)[nH]1` (single isomer, unassigned) [Compound 226, (R or S)-1-(1-(3-carbamoylphenyl)ethyl)-N-((4,6-dimethyl-2-oxo-1,2-dihydropyridin-3-yl)methyl)-2-methyl-1H-indole-3-carboxamide], the values for the IC50 at Y641N EZH2 (setting [1]) and against EZH2 (rPRC2) (setting [2]) were 1000 to 10000 nM and 100 to 1000 nM, respectively.
The like results for `Cc1cc(C)c(CNC(=O)c2c(C)n(C(C)c3cccc(C#N)c3)c3ccccc23)c(=O)[nH]1` (single isomer, unassigned) [Compound 228, (R or S)-1-(1-(3-cyanophenyl)ethyl)-N-((4,6-dimethyl-2-oxo-1,2-dihydropyridin-3-yl)methyl)-2-methyl-1H-indole-3-carboxamide] were, in that order, 100 to 1000 nM and 100 to 1000 nM.
Taken in the same sequence, the figures for `Cc1cc(C)c(CNC(=O)c2c(C)n(C(C)c3ccccc3)c3cnccc23)c(=O)[nH]1` (single isomer, unassigned) [Compound 247, (R or S)—N-((4,6-dimethyl-2-oxo-1,2-dihydropyridin-3-yl)methyl)-2-methyl-1-(1-phenylethyl)-1H-pyrrolo[2,3-c]pyridine-3-carboxamide] were below 100 nM and below 100 nM.
As to `Cc1cc(C)c(CNC(=O)c2c(C)n(C(C)c3ccccc3)c3cnccc23)c(=O)[nH]1` (single isomer, unassigned) [Compound 248, (R or S)—N-((4,6-dimethyl-2-oxo-1,2-dihydropyridin-3-yl)methyl)-2-methyl-1-(1-phenylethyl)-1H-pyrrolo[2,3-c]pyridine-3-carboxamide], the IC50 at Y641N EZH2 (setting [1]) was 100 to 1000 nM; at EZH2 (rPRC2) (read-out: EZH2 IC50, wild-type EZH2 (rPRC2)), below 100 nM.
